# Measurements: patent publication US9212182B2, “Bicyclic sulfonamide compounds as sodium channel inhibitors” (AMGEN INC., priority 2013, dated 2015)
# Biological target: Nav 1.7 (Homo sapiens (Human), UniProt Q15858)
# Assay: in-vitro Nav 1.7 PX (IC50)
# Type: cell-based
# Conditions: not given
# Sequence of Nav 1.7 (Q15858 whole entry): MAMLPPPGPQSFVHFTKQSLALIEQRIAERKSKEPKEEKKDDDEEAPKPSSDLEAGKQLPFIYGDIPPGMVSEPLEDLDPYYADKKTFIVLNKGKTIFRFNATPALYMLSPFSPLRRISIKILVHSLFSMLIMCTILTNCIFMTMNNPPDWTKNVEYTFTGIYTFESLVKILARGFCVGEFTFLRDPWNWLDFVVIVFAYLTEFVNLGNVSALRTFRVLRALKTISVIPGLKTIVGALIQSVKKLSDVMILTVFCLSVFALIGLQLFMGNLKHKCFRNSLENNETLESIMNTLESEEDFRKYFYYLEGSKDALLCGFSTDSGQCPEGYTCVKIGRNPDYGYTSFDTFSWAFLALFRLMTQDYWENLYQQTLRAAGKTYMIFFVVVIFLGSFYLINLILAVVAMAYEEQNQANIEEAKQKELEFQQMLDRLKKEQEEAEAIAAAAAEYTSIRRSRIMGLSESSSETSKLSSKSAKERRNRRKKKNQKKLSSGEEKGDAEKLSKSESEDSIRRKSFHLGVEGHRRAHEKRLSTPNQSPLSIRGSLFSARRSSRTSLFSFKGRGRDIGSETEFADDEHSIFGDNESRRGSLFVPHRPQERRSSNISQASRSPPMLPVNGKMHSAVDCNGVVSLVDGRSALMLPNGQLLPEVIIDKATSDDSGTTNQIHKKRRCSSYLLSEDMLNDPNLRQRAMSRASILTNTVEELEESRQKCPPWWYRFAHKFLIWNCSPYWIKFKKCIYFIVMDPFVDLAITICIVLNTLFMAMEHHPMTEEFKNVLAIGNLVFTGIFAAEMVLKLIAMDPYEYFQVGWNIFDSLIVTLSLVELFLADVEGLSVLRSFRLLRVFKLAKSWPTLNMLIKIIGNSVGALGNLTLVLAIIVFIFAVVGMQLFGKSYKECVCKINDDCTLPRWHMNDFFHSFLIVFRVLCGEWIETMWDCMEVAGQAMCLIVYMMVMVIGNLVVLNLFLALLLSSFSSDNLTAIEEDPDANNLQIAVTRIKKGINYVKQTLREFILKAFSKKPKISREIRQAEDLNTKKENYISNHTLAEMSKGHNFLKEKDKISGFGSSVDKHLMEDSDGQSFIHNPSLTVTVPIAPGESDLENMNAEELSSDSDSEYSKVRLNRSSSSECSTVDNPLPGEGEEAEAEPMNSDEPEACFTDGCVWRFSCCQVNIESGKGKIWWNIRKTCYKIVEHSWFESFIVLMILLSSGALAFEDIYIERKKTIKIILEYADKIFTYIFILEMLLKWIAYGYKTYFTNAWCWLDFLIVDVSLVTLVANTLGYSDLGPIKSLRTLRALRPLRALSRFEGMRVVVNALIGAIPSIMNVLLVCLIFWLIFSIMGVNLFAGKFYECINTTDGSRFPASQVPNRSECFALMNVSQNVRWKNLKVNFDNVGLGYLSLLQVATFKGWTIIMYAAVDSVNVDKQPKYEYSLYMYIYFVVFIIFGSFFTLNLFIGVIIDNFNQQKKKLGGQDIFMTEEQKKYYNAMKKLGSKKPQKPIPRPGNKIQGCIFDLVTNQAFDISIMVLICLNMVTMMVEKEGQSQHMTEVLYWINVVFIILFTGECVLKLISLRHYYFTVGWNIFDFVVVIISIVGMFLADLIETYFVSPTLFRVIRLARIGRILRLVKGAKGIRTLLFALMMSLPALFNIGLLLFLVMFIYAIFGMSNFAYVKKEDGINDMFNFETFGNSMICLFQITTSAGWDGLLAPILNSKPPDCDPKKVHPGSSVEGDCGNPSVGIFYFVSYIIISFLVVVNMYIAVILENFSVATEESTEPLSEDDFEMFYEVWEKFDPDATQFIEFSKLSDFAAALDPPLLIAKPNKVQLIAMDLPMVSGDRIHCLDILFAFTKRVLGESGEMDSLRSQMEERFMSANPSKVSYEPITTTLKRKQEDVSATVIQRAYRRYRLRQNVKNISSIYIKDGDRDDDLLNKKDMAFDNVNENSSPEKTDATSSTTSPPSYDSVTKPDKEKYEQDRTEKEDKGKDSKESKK
row,IC50 [µM],Compound
1,0.022,"COc1ccc(-c2cccc(C(F)(F)F)c2)cc1-n1c(=O)ccc2cc(S(=O)(=O)Nc3ccon3)ccc21 [Example 312, N-3-isoxazolyl-1-(4-methoxy-3′-(trifluoromethyl)-3-biphenylyl)-2-oxo-1,2-dihydro-6-quinolinesulfonamide]"
2,0.269,"COc1cc(Br)c(C)cc1-n1c(=O)ccc2cc(S(=O)(=O)Nc3ccon3)ccc21 (atropisomer, axis not shown; (P)) [Example 415, (P)-1-(4-bromo-2-methoxy-5-methylphenyl)-N-3-isoxazolyl-2-oxo-1,2-dihydro-6-quinolinesulfonamide]"

# The remaining lines, values behind:
row,Compound,IC50 [µM]
1,"COc1cc(-c2cccc(F)c2)c(Cl)cc1-n1c(=O)cc(C)c2cc(S(=O)(=O)Nc3ccon3)ccc21 [Example 348, P-1-(2-chloro-3′-fluoro-5-methoxy-[1,1′-biphenyl]-4-yl)-N-(isoxazol-3-yl)-4-methyl-2-oxo-1,2-dihydroquinoline-6-sulfonamide]",0.159
2,"COc1nc(O[C@H](C)C(F)(F)C(F)F)c(Cl)cc1-n1c(=O)ccc2cc(S(=O)(=O)Nc3ccon3)ccc21 [Example 1212, 1-(5-chloro-2-methoxy-6-(((1R)-2,2,3,3-tetrafluoro-1-methylpropyl)oxy)-3-pyridinyl)-N-3-isoxazolyl-2-oxo-1,2-dihydro-6-quinolinesulfonamide, 1-(5-chloro-2-methoxy-6-(((1S)-2,2,3,3-tetrafluoro-1-methylpropyl)oxy)-3-pyridinyl)-N-3-isoxazolyl-2-oxo-1,2-dihydro-6-quinolinesulfonamide]",0.136
3,"COc1nc(NCC2(C)CCCC2)c(Cl)cc1-n1c(=O)ccc2cc(S(=O)(=O)Nc3ccon3)ccc21 [Example 1236, 1-(5-chloro-2-methoxy-6-(((1-methylcyclopentyl)methyl)amino)-3-pyridinyl)-N-3-isoxazolyl-2-oxo-1,2-dihydro-6-quinolinesulfonamide]",0.507
4,"COc1cc(Br)c(F)cc1-n1c(=O)ccc2cc(S(=O)(=O)Nc3cc(OC4CCC4)ncn3)ccc21 (atropisomer, axis not shown; (P)) [Example 1188, (P)-1-(4-bromo-5-fluoro-2-methoxyphenyl)-N-(6-(cyclobutyloxy)-4-pyrimidinyl)-2-oxo-1,2-dihydro-6-quinolinesulfonamide]",10.6
5,"O=c1ccc2cc(S(=O)(=O)Nc3ccon3)ccc2n1-c1cc(F)c(-c2cc(F)cc(F)c2)cc1OC1CNC1 [Example 670, 1-(5-(azetidin-3-yloxy)-2,3′,5′-trifluoro-[1,1′-biphenyl]-4-yl)-N-(isoxazol-3-yl)-2-oxo-1,2-dihydroquinoline-6-sulfonamide 2,2,2-trifluoroacetate]",0.039
6,"COc1nc(Oc2cccc(Cl)c2C)c(Cl)cc1-n1c(=O)ccc2cc(S(=O)(=O)Nc3ccon3)ccc21 [Example 1226, 1-(5-chloro-6-(3-chloro-2-methylphenoxy)-2-methoxy-3-pyridinyl)-N-3-isoxazolyl-2-oxo-1,2-dihydro-6-quinolinesulfonamide]",0.316
7,"COc1cc(-c2cccc(Cl)c2)ccc1-n1c(=O)ccc2cc(S(=O)(=O)Nc3ccon3)ccc21 [Example 351, M-1-(3′-chloro-3-methoxy-[1,1′-biphenyl]-4-yl)-N-(isoxazol-3-yl)-2-oxo-1,2-dihydroquinoline-6-sulfonamide]",5.52

# Same assay, conditions: in-vitro Nav 1.7 PX data
row,IC50 [µM],Compound
1,0.122,"COc1cc(-c2ccc3c(c2)OCC3)ccc1-n1c(=O)ccc2cc(S(=O)(=O)Nc3ccon3)ccc21 [Example 809, 1-(4-(2,3-dihydro-1-benzofuran-6-yl)-2-methoxyphenyl)-N-3-isoxazolyl-2-oxo-1,2-dihydro-6-quinolinesulfonamide]"
2,0.015,"CCc1cccc(-c2ccc(-n3c(=O)ccc4cc(S(=O)(=O)Nc5ccon5)ccc43)c(OC)c2)c1 [Example 810, 1-(3′-ethyl-3-methoxy-4-biphenylyl)-N-3-isoxazolyl-2-oxo-1,2-dihydro-6-quinolinesulfonamide]"
3,0.015,"COc1ccc(-c2ccc(Cl)c(C)c2)cc1-n1c(=O)ccc2cc(S(=O)(=O)Nc3ccon3)ccc21 [Example 875, 1-(4′-chloro-4-methoxy-3′-methyl-3-biphenylyl)-N-3-isoxazolyl-2-oxo-1,2-dihydro-6-quinolinesulfonamide]"
4,0.025,"COc1ccc(-c2cc(F)cc(Cl)c2)cc1-n1c(=O)ccc2cc(S(=O)(=O)Nc3ccon3)ccc21 [Example 858, 1-(3′-chloro-5′-fluoro-4-methoxy-3-biphenylyl)-N-3-isoxazolyl-2-oxo-1,2-dihydro-6-quinolinesulfonamide]"
5,0.009,"COc1cc(Cl)c(-c2cc(F)cc(Cl)c2)cc1-n1c(=O)ccc2cc(S(=O)(=O)Nc3ccon3)ccc21 (atropisomer, axis not shown; (P)) [Example 614, (P)-1-(3′,6-dichloro-5′-fluoro-4-methoxy-3-biphenylyl)-N-3-isoxazolyl-2-oxo-1,2-dihydro-6-quinolinesulfonamide]"
6,0.081,"COc1cc(-c2cccc(OC)c2F)c(F)cc1-n1c(=O)ccc2cc(S(=O)(=O)Nc3ccon3)ccc21 [Example 734, 1-(2,2′-difluoro-3′,5-dimethoxy-4-biphenylyl)-N-3-isoxazolyl-2-oxo-1,2-dihydro-6-quinolinesulfonamide]"
7,0.573,"COc1cc(-c2ccncc2Cl)c(F)cc1-n1c(=O)ccc2cc(S(=O)(=O)Nc3ccon3)ccc21 [Example 748, 1-(4-(3-chloro-4-pyridinyl)-5-fluoro-2-methoxyphenyl)-N-3-isoxazolyl-2-oxo-1,2-dihydro-6-quinolinesulfonamide]"
8,0.009,COc1cc(CC2C[C@@H]3CC[C@@H]2C3)c(F)cc1-n1c(=O)ccc2cc(S(=O)(=O)Nc3ccon3)ccc21 (stereo partly shown) [Example 1082]
9,0.013,"COc1cc(F)cc(-c2ccc(-n3c(=O)ccc4cc(S(=O)(=O)Nc5ccon5)ccc43)c(OC)c2)c1 [Example 1018, 1-(3′-fluoro-3,5′-dimethoxy-4-biphenylyl)-N-3-isoxazolyl-2-oxo-1,2-dihydro-6-quinolinesulfonamide]"

# More lines, now with the values behind:
row,Compound,IC50 [µM]
1,"1-(3′-(difluoromethoxy)-2-fluoro-5-methoxy-4-biphenylyl)-N-(5-fluoro-2-pyrimidinyl)-2-oxo-1,2-dihydro-6-quinolinesulfonamide [Example 907]",0.191
2,"COc1cc(-c2ccc(Cl)c(C)c2)c(F)cc1-n1c(=O)ccc2cc(S(=O)(=O)Nc3ncco3)ccc21 (atropisomer, axis not shown; (P)) [Example 694, (P)-1-(4′-chloro-2-fluoro-5-methoxy-3′-methyl-4-biphenylyl)-N-1,3-oxazol-2-yl-2-oxo-1,2-dihydro-6-quinolinesulfonamide]",0.027
3,"COc1cc(-c2cc(F)cc(Cl)c2)c(F)cc1-n1c(=O)ccc2cc(S(=O)(=O)Nc3cnsn3)ccc21 [Example 922, 1-(3′-chloro-2,5′-difluoro-5-methoxy-4-biphenylyl)-2-oxo-N-1,2,5-thiadiazol-3-yl-1,2-dihydro-6-quinolinesulfonamide]",0.004
4,"COc1cc(-c2cc(Cl)cnc2OC)c(F)cc1-n1c(=O)ccc2cc(S(=O)(=O)Nc3ncco3)ccc21 [Example 776, 1-(4-(5-chloro-2-methoxy-3-pyridinyl)-5-fluoro-2-methoxyphenyl)-N-1,3-oxazol-2-yl-2-oxo-1,2-dihydro-6-quinolinesulfonamide]",0.054
5,"COc1cc(-c2ccc(Cl)cc2)ccc1-n1c(=O)ccc2cc(S(=O)(=O)Nc3ncc(F)cn3)ccc21 [Example 764, 1-(4′-chloro-3-methoxy-4-biphenylyl)-N-(5-fluoro-2-pyrimidinyl)-2-oxo-1,2-dihydro-6-quinolinesulfonamide]",0.04
6,"COc1cc(-c2cc(OC)c(-n3c(=O)ccc4cc(S(=O)(=O)Nc5cccnn5)ccc43)cc2F)ccc1F [Example 1007, 1-(2,4′-difluoro-3′,5-dimethoxy-4-biphenylyl)-2-oxo-N-3-pyridazinyl-1,2-dihydro-6-quinolinesulfonamide]",0.131
7,"COc1cc(-c2cccc(C)c2)ccc1-n1c(=O)ccc2cc(S(=O)(=O)Nc3ncccn3)ccc21 [Example 1117, 1-(3-methoxy-3′-methyl-4-biphenylyl)-2-oxo-N-2-pyrimidinyl-1,2-dihydro-6-quinolinesulfonamide]",0.059
8,"COc1cc(-c2cccc(C)c2)ccc1-n1c(=O)ccc2cc(S(=O)(=O)Nc3cccnn3)ccc21 [Example 1120, 1-(3-methoxy-3′-methyl-4-biphenylyl)-2-oxo-N-3-pyridazinyl-1,2-dihydro-6-quinolinesulfonamide]",0.108
9,"COc1cc(Cl)cc(-c2cc(OC)c(-n3c(=O)ccc4cc(S(=O)(=O)Nc5ncco5)ccc43)cc2F)c1 [Example 926, 1-(3′-chloro-2-fluoro-5,5′-dimethoxy-4-biphenylyl)-N-1,3-oxazol-2-yl-2-oxo-1,2-dihydro-6-quinolinesulfonamide]",0.006
10,"COc1cccc(-c2nc(OC)c(-n3c(=O)ccc4cc(S(=O)(=O)Nc5ccon5)ccc43)cc2Cl)c1 [Example 1092, 1-(5-chloro-2-methoxy-6-(3-methoxyphenyl)-3-pyridinyl)-N-3-isoxazolyl-2-oxo-1,2-dihydro-6-quinolinesulfonamide]",0.048
11,"COc1cc(-c2cccc(C(F)(F)F)c2)c(F)cc1-n1c(=O)ccc2cc(S(=O)(=O)Nc3ccnc(C)n3)ccc21 [Example 804, 1-(2-fluoro-5-methoxy-3′-(trifluoromethyl)-4-biphenylyl)-N-(2-methyl-4-pyrimidinyl)-2-oxo-1,2-dihydro-6-quinolinesulfonamide]",0.014

# Same assay, conditions: in-vitro Nav 1.7 PX data (PatchXpress)
row,Compound,IC50 [µM]
1,"O=c1ccc2cc(S(=O)(=O)Nc3nncs3)ccc2n1-c1ccc(-c2cc(F)cc(F)c2)cc1C1CC1 [Example 1046, 1-(3-cyclopropyl-3′,5′-difluoro-4-biphenylyl)-2-oxo-N-1,3,4-thiadiazol-2-yl-1,2-dihydro-6-quinolinesulfonamide]",0.112

# Same assay, conditions: in-vitro PatchXpress (PX)
row,Compound,IC50 [µM]
1,"COc1cc(Cl)cc(-c2cc(OC)c(-n3c(=O)ccc4cc(S(=O)(=O)Nc5ccon5)ccc43)cc2F)c1 (atropisomer, axis not shown; (P)) [Example 501, (P)-1-(3′-chloro-2-fluoro-5,5′-dimethoxy-4-biphenylyl)-N-3-isoxazolyl-2-oxo-1,2-dihydro-6-quinolinesulfonamide]",0.004
